In publication PMC6934184, “Selective DNA-PKcs inhibition extends the therapeutic index of localized radiotherapy and chemotherapy” (The Journal of Clinical Investigation, 2019) one finds inhibition data, which are given here for one compound.

For the experiment, the target named is T1, CHEK2 (CHK2) (Homo sapiens, UniProt O96017).
T1 construct: purchased Thermo Fisher Scientific (Life Technologies) SelectScreen
Description: SelectScreen Z'LYTE. The class given is biochemical. A digest of the protocol:
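SelectScreen broad panel; activity (Z'LYTE, Adapta) plus binding formats. ATP: Km app for CSF1R Z'LYTE; 10 for CAMK1 Adapta. Readout = % per kinase.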

T1 sequence (O96017 whole entry): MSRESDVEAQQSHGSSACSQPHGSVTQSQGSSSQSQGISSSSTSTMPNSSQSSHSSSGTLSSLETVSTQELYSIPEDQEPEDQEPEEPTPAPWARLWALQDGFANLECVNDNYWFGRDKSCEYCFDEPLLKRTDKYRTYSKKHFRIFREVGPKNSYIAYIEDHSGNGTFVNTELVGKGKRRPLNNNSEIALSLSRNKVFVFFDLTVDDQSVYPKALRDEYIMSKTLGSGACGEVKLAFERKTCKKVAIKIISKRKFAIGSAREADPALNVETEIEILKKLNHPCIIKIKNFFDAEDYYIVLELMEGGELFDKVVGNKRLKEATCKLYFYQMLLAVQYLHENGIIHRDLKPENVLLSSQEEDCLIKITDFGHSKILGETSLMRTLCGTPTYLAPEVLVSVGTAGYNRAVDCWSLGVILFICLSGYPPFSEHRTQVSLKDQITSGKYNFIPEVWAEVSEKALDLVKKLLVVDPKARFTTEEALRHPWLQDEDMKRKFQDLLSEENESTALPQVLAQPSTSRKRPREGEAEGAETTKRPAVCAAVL

A word on the inhibition: it is the relative decrease from the control value, in per cent. Take `CN(C(=O)CN1CCOCC1)c1ccc2sc3c(-c4cccc5c(=O)cc(N6CC7CCC(C6)O7)oc45)cccc3c2c1` [NU5455]: the inhibition at 1 µM was -11.7%.
